Assay results: US11174270B2, “Crystal form of 3,4-dihydrothieno[3,2-d]pyrimidine compound and preparation method thereof” (PHAENO THERAPEUTICS CO., LTD., priority 2018, dated 2021)

Columns and labels:
[1] = test system: HCMV (strain: GFP-AD169); assay: Human cytomegalovirus (HCMV) transplantation model in mice; assay type: in vivo; conditions: NOD SCID mice, 8 mg/kg orally once per day
Protocol: Human Cytomegalovirus (HCMV) Transplantation Model in Mice
Gelatin sponge containing HCMV was transplanted into mice. After 9 days of continuous administration, the gelatin sponge was collected for plaque detection. The anti-HCMV effect of the compound in this model was evaluated by detecting the amount of HCMV in the gelatin sponge.
The animals used in the assay were NOD SCID mice (purchased from Shanghai SLAC Laboratory Animal Co., Ltd.), 5 weeks old, and male. There were 5 animals in each group. The day on which the mice were subjected to gelatin sponge transplantation was set as day 0. Human foreskin fibroblasts (HFF, MOI=0.03) were infected with HCMV (strain: GFP-AD169) in advance, and then the HFF cells infected with HCMV were added to 1 cm^2 gelatin sponges and incubated for use. The animals were anesthetized by intraperitoneal injection of pentobarbital sodium at a dose of 75 mg/kg (10 ml/kg). After the animals entered the deep anesthesia state, the treated gelatin sponges were subcutaneously transplanted into the back of the mice. From day 1 to day 9, 8 mg/kg (10 ml/kg) of compound 1 was administered orally once per day. On the day 9, four hours after the administration, the gelatin sponges were taken out and digested, and then the plaques were detected.

[2] = Plasma protein binding rate, equilibrium dialysis, human plasma; assay type: in vitro ADME; conditions: equilibrium dialysis 37° C. 4 hours, read-out: Plasma Protein Binding PPB bound(%) (converted)
Protocol: Determination of the Plasma Protein Binding Rate of the Compound
The protein-binding rates of the test compound in the plasma of CD-1 mice, SD rats and human were evaluated by the equilibrium dialysis method. Compound 1 was diluted into the plasma of the above three species respectively to prepare samples with a final concentration of 2 μM. The samples were then added to a 96-well equilibrium dialysis device, and dialyzed against phosphate buffer solution at 37° C. for 4 hours. Warfarin was used as a control compound in the assay. The concentrations of the test compound and warfarin in the plasma and buffer were determined by LC-MS/MS method.

[3] = test system: human cytomegalovirus (HCMV); assay: Fluorescence decay assay against human cytomegalovirus; assay type: cell-based; conditions: Human betaherpesvirus 5, 240 h; US3-6-EGFP-HCMV-AD169 in MRCS cells, 10 days of culture, GFP fluorescence intensity
Protocol: Fluorescence Decay Assay Against Human Cytomegalovirus
The antiviral activity of the compound against human cytomegalovirus (HCMV) was evaluated by determining the median effective concentration (EC50) value of the compound. The HCMV used in this assay was inserted with enhanced green fluorescent protein (EGFP) as a reporter gene by gene recombination, and thus the replication of the virus in cells can be reflected by the expression level of GFP. The inhibitory activity of the compound on the expression of GFP in HCMV was evaluated by determining the fluorescence intensity in the wells of different concentrations of the compound using a high-content cell analysis platform Acumen eX3.
Fluorescence Decay Assay Against HCMV
MRCS cells were inoculated into a black 96-well cell culture plate at a density of 20,000 cells per well, and then incubated overnight in a 37° C., 5% CO2 incubator. US3-6-EGFP-HCMV-AD169 viruses were added to the cell culture wells at a certain MOI (0.003 to 0.1), and incubated in a 37° C., 5% CO2 incubator for 3 hours. After adsorption of viruses, the medium containing viruses was pipetted out, and 200 μl of cell culture medium containing different concentrations of the compound (4-fold dilution, 6 test concentrations) was added. […] After 10 days of culture, the fluorescence intensity was detected with a high content cell analysis platform Acumen eX3 (TTP LabTech). […]

With `COc1cc(N2CCN(C3=Nc4ccsc4[C@H](CC(=O)O)N3c3cc(C(F)(F)F)ccc3OC)C[C@H]2C)ccn1` (single isomer, unassigned) [Compound 1] the “body weights of the mice” value ([1]; day 1 to day 9) was “stable”, the clinical observations ([1]; day 1 to day 9) was “no abnormality was found” and the “decrease in HCMV viral load” value ([1]; gelatin sponge with HCMV-infected HFF, day 1 to day 9, plaque detection) was 2.38 log PFU/ml. The fraction unbound at 4 h, 2 μM [2] was 0.06 and the EC50 [3] was 0.2 nM.
